Here are results for 2 molecules from US20210254000A1, “PROCESS FOR PRODUCING A T CELL COMPOSITION” (Juno Therapeutics, Inc., priority 2017, published 2021).

For assay [1], the system named is Raji cells. The assay is described as follows: Raji tumor xenograft model, CAR-T cells expanded with inhibitor. The assay is classed as in vivo, nod scid gamma (NSG) immunodeficient mice. As to conditions: for tumor burden (bioluminescence) compared with DMSO vehicle: low (0.25×10^6) or high (1.0×10^6) dose of CAR+ T cells expanded with the inhibitor; for survival compared to mice administered CAR-T cells expanded with DMSO vehicle: low or high dose of CAR-T cells expanded with the inhibitor. As to the method:
Anti-tumor effects of the generated anti-CD19 CAR-T cell compositions, generated by expansion in the presence of PI-103, Compound 63 or media only as described in Example 2, was assessed. The tumor xenograft mouse model was generated by implanting nod scid gamma (NSG) immunodeficient mice with 0.5×10^6 Raji cells (an immortalized human B lymphocyte tumor cell line that expresses CD19), which were allowed to engraft. The Raji cells were transfected with firefly luciferase to facilitate detection by bioluminescence imaging. After seven days, mice either received no treatment, DMSO vehicle, or a low dose (0.25×10^6) or a high dose (1.0×10^6) dose of CAR+ T cells of the generated anti-CD19 CAR-T cell compositions. Tumor burden was assessed by bioluminescence weekly or every 10 days.

For assay [2], the system named is Raji cells. The assay is described as follows: Raji tumor xenograft model, CAR-T cells prepared as in Example 7. The assay is classed as in vivo, nod scid gamma (NSG) immunodeficient mice. How it is done: Anti-tumor effects of anti-CD19 CAR-T cell compositions prepared in the presence DMSO, PI-103 or Compound 63 as described in Example 7 were assessed in vivo. The tumor xenograft mouse model was generated by implanting nod scid gamma (NSG) immunodeficient mice with 0.5×10^6 Raji cells (an immortalized human B lymphocyte tumor cell line that expresses CD19), which were allowed to engraft. The Raji cells were transfected with firefly luciferase to facilitate measurement of tumor burden by bioluminescence imaging. After seven days, mice either received no treatment, or treatment with a low dose (0.25×10^6) or a high dose (1.0×10^6) of anti-CD19 CAR+ T cells prepared in the presence of DMSO (vehicle) or DMSO and a mTOR kinase inhibitor. Tumor burden and mortality were assessed weekly.

Assay [3] concerns CD8+ and CD4+ T cells of anti-CD19 CAR-T cell compositions. In words: Intracellular polyfunctional cytokine profiles. The format is cell-based, human. As to conditions: cells expanded with 200 nM PI-103 or 1 μM Compound 63; PMA/Ionomycin + Golgi Inhibitor or Golgi Inhibitor alone, 5 hours. As to the method:
Separate compositions of CD4+ and CD8+ cells were isolated from three human donors, activated and transduced with a viral vector encoding an anti-CD19 CAR substantially as described in Example 2. After transduction, the CD4+ and CD8+ T cells derived from each donor were separately incubated for 8 days in the presence of a mTOR kinase inhibitor to expand T cells substantially as described in Example 2, except in the presence of 200 nM PI-103, 1 μM Compound 63, or with DMSO vehicle or media only controls. CD4+ and CD8+ T cells from each donor were then separately harvested, formulated, and cryofrozen. The cryofrozen engineered CD4+ and CD8+ T cells were thawed, washed to remove compound, and cells from the same donor were then combined at a ratio of 1:1 viable CD4+/CAR+ to viable CD8+/CAR+ T cells to produce an expanded anti-CD19 CAR-T cell composition containing CD4+ and CD8+ T cells. Functional activities of the generated anti-CD19 CAR-T cell compositions were assessed.
Intracellular cytokines, CD107a, IFN-gamma ([…]), IL-2, IL-17a, and TNF-alpha (TNFα), were assessed in co-cultured T cells that were split into two groups and further incubated for 5 hours with PMA/Ionomycin and a Golgi Inhibitor or a Golgi Inhibitor alone. The intracellular cytokine accumulation was expressed as a fold change in frequency of cytokine positive cells from media-only controls. […]

Assay [4] relates to CAR-T cells incubated with CD19-expressing target cells. In words: Intracellular and secreted cytokines of CAR-T cells (mixed CD4+/CD8+ process). The format is cell-based, human. As to conditions: for levels of secreted cytokines (IL-2, TNF-alpha, IFN-gamma) in supernatants: 20 hours with CD19-antigen expressing cells, ELISA; for polyfunctional effector cytokine profiles (IL-2, TNF-alpha, IFN-gamma) compared to DMSO: CD8+ and CD4+ subsets, primary or secondary stimulation, golgi inhibitor 5 hours. How it is done: Separate compositions of CD4+ and CD8+ cells were selected from isolated PBMCs from a leukapheresis sample from the same human donor by immunoaffinity based selection, and the selected cell compositions were cryofrozen. The separate compositions of CD4+ and CD8+ T cells were subsequently thawed and mixed at a ratio of 1:1 of viable CD4+ T cells to viable CD8+ T cells. In this study, the mixed CD4+ and CD8+ cell populations were incubated in the presence of Compound 63, PI103 or no inhibitor (DMSO vehicle control) beginning at the initiation of stimulation. In more detail, the mixed CD4+ and CD8+ T cell composition was stimulated (in the presence or absence of an inhibitor, as indicated) in the presence of paramagnetic polystyrene-coated beads with attached anti-CD3 and anti-CD28 antibodies for between 18 to 30 hours, and were then transduced with a lentiviral vector encoding an anti-CD19 CAR. The CAR contained an scFv antigen-binding domain specific for CD19 (derived from FMC63), a CD28 transmembrane region, a 4-1BB costimulatory signaling region, and a CD3-zeta derived intracellular signaling domain. The cells were then expanded in the presence of cytokines typically for approximately 6-7 days. Beginning with stimulation and for the duration of the process, the media contained DMSO (vehicle control), 2 μM PI103 or 1 μM Compound 63. The vehicle control contained DMSO at a volume to match that in the mTOR inhibitor-treated samples. Expanded cells were cryopreserved. For assessment, the cryopreserved CAR-T cells were thawed and washed prior to assessment in assay media without supportive cytokines and without inhibitor or vehicle.
Intracellular cytokine levels were monitored in cells of co-cultures incubated with freshly thawed generated CAR-T cells or CAR-T cells after secondary restimulation with CD19-expressing target cells. CAR-T cells were incubated with target-expressing cells in the presence of golgi inhibitor for 5 hours. Intracellular expression of IL-2, TNF-alpha and IFN-gamma was determined and a polyfunctional score was calculated by gating for cumulative CAR-T cells positive for IL-2 and any combination of IFN-gamma and TNF-alpha. […] Generated CAR-T cells were also cultured with CD19-antigen expressing cells for 20 hours and levels of IL-2, TNF-alpha and IFN-gamma were assessed in cell culture supernatants by ELISA.

Molecule `CC(C)c1ccccc1-n1c(=O)[nH]c2c(C(N)=O)nc(-c3cccc(O)c3)nc21` [Compound 63, 2-(3-Hydroxyphenyl)-9-(2-isopropylphenyl)-8-oxo-8,9-dihydro-7H-purine-6-carboxamide] gave a survival with Raji cells [1] (high dose of CAR-T cells expanded with the inhibitor, for at least 80 days following tumor cell implant) of 100%. In the assay with Raji cells [1], the “tumor burden (bioluminescence) compared with DMSO vehicle” value is reported as “Reduced tumor burden” and the “survival compared to mice administered CAR-T cells expanded with DMSO vehicle” value is on record as “substantially improved survival”. Also, the “in vivo anti-tumor responses compared to absence of inhibitor (DMSO vehicle)” value with Raji cells [2] (low (0.25×10^6) or high (1.0×10^6) dose of CAR+ T cells prepared with the inhibitor) is “improvement in vivo anti-tumor responses”. For the same molecule, in assay [3], the “frequency of polyfunctional cytokine profiles in CD8+ and CD4+ T cells vs control cells” value was “increased frequency of certain polyfunctional cytokine profiles”. In assay [4], the “levels of secreted cytokines (IL-2, TNF-alpha, IFN-gamma) in supernatants” value is listed as “increased levels of secreted cytokines” and the “polyfunctional effector cytokine profiles (IL-2, TNF-alpha, IFN-gamma) compared to DMSO” value is on record as “improved polyfunctional effector cytokine profiles”.
For the molecule `Oc1cccc(-c2nc(N3CCOCC3)c3oc4ncccc4c3n2)c1` [PI-103, reference compound], in the assay on Raji cells [1], the “tumor burden (bioluminescence) compared with DMSO vehicle” value is on record as “Reduced tumor burden” and the “survival compared to mice administered CAR-T cells expanded with DMSO vehicle” value is “substantially improved survival”. Besides, the “anti-tumor effects compared to cells produced in the absence of inhibitor (DMSO vehicle)” value in the assay with Raji cells [2] (CAR-T cells generated from another donor) is recorded as “comparable anti-tumor effects”. The “frequency of polyfunctional cytokine profiles in CD8+ and CD4+ T cells vs control cells” value in assay [3] is “increased frequency of certain polyfunctional cytokine profiles”. For the same molecule, in assay [4], the “levels of secreted cytokines (IL-2, TNF-alpha, IFN-gamma) in supernatants” value is given as “increased levels of secreted cytokines” and the “polyfunctional effector cytokine profiles (IL-2, TNF-alpha, IFN-gamma) compared to DMSO” value is on record as “improved polyfunctional effector cytokine profiles”.
